Assay results as given in patent publication US20080176810A1, “Use of 3, 4', 5-Trihydroxy-Stilbene-3-Beta-D-glucoside in Prepartion of Medicines For Treating and/or Preventing Ischemic Heart Disease” (SHENZHEN NEPTUNUS PHARMACEUTICAL CO., LTD., priority 2004, published 2008).
Where two headings read alike, the source gives them in different places.

Columns and labels:
[1] = tested on: ischemic reperfusion injury of myocardium; test: Ischemic reperfusion injury of myocardium in rats, iv; format: in vivo, SD rats; settings: for CK / LDH: serum
Method: Administration was performed by femoral intravenous injection.
(1) Method of operation and ligation of coronary artery: Male SD rats were anesthetized with pentobarbital sodium (45 mg/kg) and immobilized on their backs for records of II lead ECG with an electrocardiograph (ECG-6851C, manufactured by Shanghai Photoelectrical Medical Electronic Apparatus Co., Ltd.). Tracheas were intubated and connected to a breathing apparatus. Thoracotomy was performed at intercostal space on left chest for cutting down fourth/fifth rib and opening cardiac pericardium to expose the heart. A 0/3 suture line was passed underneath the left branch of anterior descending coronary artery. After 10 minutes of stabilization (those with abnormal ECG after stabilization were abandoned). With two thrums passing through a small piece of fine silicone tube, a ligature was made on another small piece of fine silicone tube for ischemic ligation (those with no changes in ST segment and T-wave were excluded). After 10 minutes of ligation, drugs were injected slowly through femoral veins. 40 minutes later, the lines for ligation were cut off to reperfuse the anterior descending branch for 30 minutes.
(2) Detection of lactate dehydrogenase (LDH) and creatine kinase (CK): After completion of reperfusion, blood was sampled from abdominal aorta to determine serum activity of LDH and CK with ultraviolet spectrometry.
(3) Measurement of the area of myocardial infarction: With same thickness, 5 slices of ventricular myocardium were cut off from the part under the line of coronary ligation and in parallel to atrioventricular furrow and put into staining solution of nitroblue tetrazolium (N-BT) for 15 min of shaking dyeing. Normal myocardium would be dyed to lasureous color, while the infarct part of myocardium would not be dyed and remain pale-yellow. Under a microscopy, the infarct part was separated and weighed, and the percentage (%) of the weight of infarct part to the weight of total myocardium was adopted as the index for area of myocardial infarction.
(4) Data and statistic treatment: Data in all groups were presented with x±s and analysis of variance was adopted to check their significance.

vascular smooth muscle = settings: 0.02 mM~2 mM; cited from earlier work
platelet aggregation = settings: 6~100 μmol/L TSG; cited from earlier work
[2] = tested on: myocardial infarction induced by ligation of coronary artery; test: Canine model of myocardial infarction induced by ligation of coronary artery, iv; format: in vivo, dogs; settings: for sum of ST (ΣST) segment elevation, x ± s: 0 min before, c3-c8 5,15,30,60,90,120 min after administration; for IZ/LV / IZ/WT: N-BT staining; for CK after administration / CK before administration / LDH after administration / LDH before administration: serum
Method: Drugs were medicated with intravenous injection. The volume of the drug administered was the same as that of normal saline for the animal model group of ischemic reperfusion with administrative volume of 2 ml/kg.
After weighing, the animals were anesthetised with pentobarbital sodium iv at the dose of 30 mg/kg. Tracheal intubation was performed and SC-M5 anesthesia respirator (manufactured by Shanghai Medical Instrument Factory) was connected for mechanical ventilation (16˜18 per min with tidal volume of 350˜550 ml) after thoracotomy at the fourth intercostal space of left sternal border. With exposure of the heart, the pericardium was cut open to make pericardium hammock. The coronary artery was dissociated from between the first and second branches of left anterior descending coronary artery, underneath which passed through silk threads for two-step ligation. On surface of heart were placed 30-point epicardial leads, to which four limbs were connected through needle-electrodes, which in turn were connected to Powerlab/8s (AD Instruments) with a multichannel switcher. Harris Two-step Ligation was performed. Two minutes before first ligation, 5 mg/kg lidocaine was given by femoral intravenous injection to prevent arrhythmia. While performing ligation, a steel wire of 1 mm in diameter was inserted into the first knot so as to be ligated together with the coronary artery. Afterward, the steel-wire was pulled out and then 30 min later, the second knot was made to complete the ligation.
The epicardial electrogram 10 min after completing the ligation was recorded as the control value before drug administration. Later, test drug was given by femoral intravenous injection while the negative control group was given solvent of same volume. Constant dripping was completed within 30 min for all groups with a constant flow pump (SH-88AB Controllable Intravenous Injector made by Quanzhou Lizhong Electronic Medical Instrument Factory). After completion of the constant dripping, changes of epcardial electrogram at 5, 15, 30, 60, 90 and 120 min after administration were recorded respectively. The number of ST segment elevation or depression to more than 2 mV and sum of total value ST segment elevation (ΣST) were applied as the indexes for observation of changes of epcardial electrogram and to calculate the percentage of the weight of infarct area to the weight of whole heart or to the weight of left ventricle. 3 ml of blood from right ventricle was sampled before ligation and 2 hrs after administration. After centrifuged at 3000 rpm for 15 min, serum was taken to detect lactate dehydrogenase (LDH) and serum creatine kinase (CK). Method according to instruction of the LDH and CK Assay kit (batch no: 20020523, Nanjing Jiancheng Bioengineering Institute) (ENR: U90625, Randox Company, UK) was adopted for detection. The performance was with a ultraviolet/visible range spectrophotometer of UV751GD type (Shanghai analytical apparatus Factory).

[3] = tested on: isolated carotid and pulmonary arteries; settings: cited from earlier work

3,4′,5-trihydroxy-stilbene-3-β-D-glucoside [TSG]
Infarct area percentage ([1]; high dose 30.0 mg/kg iv): 23.71 ± 3.66 % | CK ([1]; high dose 30.0 mg/kg iv): 559.4 ± 72.9 IU/L | LDH ([1]; high dose 30.0 mg/kg iv): 744.0 ± 149.2 IU/L | Infarct area percentage ([1]; low dose 7.5 mg/kg iv): 27.57 ± 5.33 % | CK ([1]; low dose 7.5 mg/kg iv): 710.7 ± 106.8 IU/L | LDH ([1]; low dose 7.5 mg/kg iv): 857.7 ± 124.0 IU/L | Infarct area percentage ([1]; middle dose 15.0 mg/kg iv): 24.80 ± 3.32 % | CK ([1]; middle dose 15.0 mg/kg iv): 630.6 ± 108.6 IU/L | LDH ([1]; middle dose 15.0 mg/kg iv): 809.4 ± 128.4 IU/L | intracellular calcium concentration in vascular smooth muscle (vascular smooth muscle): increase intracellular calcium concentration in vascular smooth muscle remarkably | platelet aggregation and production of thromboxane B2 induced by arachidonic acid, adenosine diphosphate and adrenalin (platelet aggregation): inhibited | CK B/A ([2]; TSG 2.5 mg/kg): 2.54 ± 0.27 | LDH B/A ([2]; TSG 2.5 mg/kg): 2.28 ± 0.21 | sum of ST (ΣST) segment elevation, x ± s ([2]; TSG 2.5 mg/kg iv, 0 min before administration): 154.5 ± 60.4 mV | sum of ST (ΣST) segment elevation, x ± s ([2]; TSG 2.5 mg/kg iv, 5 min after administration): 154.7 ± 55.0 mV | sum of ST (ΣST) segment elevation, x ± s ([2]; TSG 2.5 mg/kg iv, 30 min after administration): 129.2 ± 57.7 mV | sum of ST (ΣST) segment elevation, x ± s ([2]; TSG 2.5 mg/kg iv, 60 min after administration): 122.7 ± 59.6 mV | sum of ST (ΣST) segment elevation, x ± s ([2]; TSG 2.5 mg/kg iv, 90 min after administration): 128.3 ± 55.1 mV | IZ/LV ([2]; TSG 2.5 mg/kg): 21.68 ± 1.88 % | IZ/WT ([2]; TSG 2.5 mg/kg): 11.70 ± 0.93 % | CK after administration ([2]; TSG 2.5 mg/kg): 446.6 ± 39.4 IU/L | CK before administration ([2]; TSG 2.5 mg/kg): 176.7 ± 18.8 IU/L | LDH after administration ([2]; TSG 2.5 mg/kg): 823.3 ± 186.3 IU/L | LDH before administration ([2]; TSG 2.5 mg/kg): 359.7 ± 70.5 IU/L | CK B/A ([2]; TSG 5.0 mg/kg): 1.98 ± 0.38 | LDH B/A ([2]; TSG 5.0 mg/kg): 2.09 ± 0.16 | sum of ST (ΣST) segment elevation, x ± s ([2]; TSG 5.0 mg/kg iv, 0 min before administration): 153.8 ± 50.7 mV | sum of ST (ΣST) segment elevation, x ± s ([2]; TSG 5.0 mg/kg iv, 5 min after administration): 148.0 ± 39.9 mV | sum of ST (ΣST) segment elevation, x ± s ([2]; TSG 5.0 mg/kg iv, 30 min after administration): 116.2 ± 53.7 mV | sum of ST (ΣST) segment elevation, x ± s ([2]; TSG 5.0 mg/kg iv, 60 min after administration): 105.3 ± 53.6 mV | sum of ST (ΣST) segment elevation, x ± s ([2]; TSG 5.0 mg/kg iv, 90 min after administration): 103.8 ± 54.1 mV | IZ/LV ([2]; TSG 5.0 mg/kg): 15.25 ± 1.41 % | IZ/WT ([2]; TSG 5.0 mg/kg): 9.03 ± 1.16 % | CK after administration ([2]; TSG 5.0 mg/kg): 356.2 ± 64.8 IU/L | CK before administration ([2]; TSG 5.0 mg/kg): 180.8 ± 13.2 IU/L | LDH after administration ([2]; TSG 5.0 mg/kg): 587.1 ± 170.6 IU/L | LDH before administration ([2]; TSG 5.0 mg/kg): 281.2 ± 80.9 IU/L | CK B/A ([2]; TSG 10 mg/kg): 1.74 ± 0.37 | LDH B/A ([2]; TSG 10 mg/kg): 1.99 ± 0.14 | sum of ST (ΣST) segment elevation, x ± s ([2]; TSG 10 mg/kg iv, 0 min before administration): 155.0 ± 46.4 mV | sum of ST (ΣST) segment elevation, x ± s ([2]; TSG 10 mg/kg iv, 5 min after administration): 151.7 ± 35.6 mV | sum of ST (ΣST) segment elevation, x ± s ([2]; TSG 10 mg/kg iv, 30 min after administration): 115.2 ± 50.9 mV | sum of ST (ΣST) segment elevation, x ± s ([2]; TSG 10 mg/kg iv, 60 min after administration): 104.7 ± 45.5 mV | sum of ST (ΣST) segment elevation, x ± s ([2]; TSG 10 mg/kg iv, 90 min after administration): 102.0 ± 51.8 mV | IZ/LV ([2]; TSG 10 mg/kg): 13.92 ± 1.32 % | IZ/WT ([2]; TSG 10 mg/kg): 8.65 ± 1.11 % | CK after administration ([2]; TSG 10 mg/kg): 299.5 ± 63.9 IU/L | CK before administration ([2]; TSG 10 mg/kg): 172.7 ± 11.1 IU/L | LDH after administration ([2]; TSG 10 mg/kg): 551.6 ± 131.3 IU/L | LDH before administration ([2]; TSG 10 mg/kg): 279.3 ± 70.8 IU/L | effect on vasoconstriction of noadrenalin ([3]; 1.37 mM): no noticeable effect | effect on vasoconstriction of noadrenalin ([3]; 1.71 mM): antagonistic effect | effect on isolated carotid and pulmonary arteries ([3]; 3.28 mM): no noticeable effect | effect on isolated carotid and pulmonary arteries ([3]; 5.12 mM): may relax
